Laboratory results published in US20040248739A1, “Pyridylpropynyloxyphenyl derivatives for use as herbicides” (priority 2001, published 2004).

Key:
Format in all cases: in vivo
[1] = system: Echinochloa (Ds); experiment: Pre-emergence herbicidal action (Example B1); settings: 1000 g of active ingredient/ha, after 4 weeks, scale of nine ratings
Experimental: (§1) Monocotyledonous and dicotyledonous test plants are sown in standard soil in pots. Immediately after sowing, the test compounds, in the form of an aqueous suspension (prepared from a wettable powder (Example F3, b) according to WO 97/34485) or in the form of an emulsion (prepared from an emulsifiable concentrate (Example F1, c) according to WO 97/34485), are applied by spraying in an optimum concentration (500 litres of water/ha). The test plants are then grown in a greenhouse under optimum conditions. After a test duration of 4 weeks, the test is evaluated in accordance with a scale of nine ratings (1=total damage, 9=no action). Ratings of from 1 to 4 (especially from 1 to 3) indicate good to very good herbicidal action. Test plants: Panicum, Echinochloa (Ds), Amaranthus, Chenopodium, Stellaria, Veronica.

[2] = system: Panicum; experiment: Pre-emergence herbicidal action (Example B1); settings: 1000 g of active ingredient/ha, after 4 weeks, scale of nine ratings
Experimental: as §1

[3] = system: Amaranthus; experiment: Pre-emergence herbicidal action (Example B1); set-up: key: 1=total damage; 9=no action; Ratings of from 1 to 4 (especially from 1 to 3) indicate good to very good herbicidal action; settings: 1000 g of active ingredient/ha, after 4 weeks, scale of nine ratings
Experimental: as §1

[4] = system: Chenopodium; experiment: Pre-emergence herbicidal action (Example B1); set-up: key: 1=total damage; 9=no action; Ratings of from 1 to 4 (especially from 1 to 3) indicate good to very good herbicidal action; settings: 1000 g of active ingredient/ha, after 4 weeks, scale of nine ratings
Experimental: as §1

[5] = system: Stellaria; experiment: Pre-emergence herbicidal action (Example B1); set-up: key: 1=total damage; 9=no action; Ratings of from 1 to 4 (especially from 1 to 3) indicate good to very good herbicidal action; settings: 1000 g of active ingredient/ha, after 4 weeks, scale of nine ratings
Experimental: as §1

[6] = system: Veronica; experiment: Pre-emergence herbicidal action (Example B1); set-up: key: 1=total damage; 9=no action; Ratings of from 1 to 4 (especially from 1 to 3) indicate good to very good herbicidal action; settings: 1000 g of active ingredient/ha, after 4 weeks, scale of nine ratings
Experimental: as §1

[7] = system: Euphorbia; experiment: Post-emergence herbicidal action (Example B2); settings: post-emergence (2- to 3-leaf stage), 1000 g of active ingredient/ha, after 2 to 3 weeks, scale of nine ratings
Experimental: as §1, with “pots. When the test plants are at the 2- to 3-leaf stage,” for “pots. Immediately after sowing,”, “grown on” for “grown”, “of 2 to 3” for “of 4”, “Panicum, Euphorbia,” for “Panicum, Echinochloa (Ds),”

[8] = system: Stellaria; experiment: Post-emergence herbicidal action (Example B2); settings: post-emergence (2- to 3-leaf stage), 1000 g of active ingredient/ha, after 2 to 3 weeks, scale of nine ratings
Experimental: as §1, with “pots. When the test plants are at the 2- to 3-leaf stage,” for “pots. Immediately after sowing,”, “grown on” for “grown”, “of 2 to 3” for “of 4”, “Panicum, Euphorbia,” for “Panicum, Echinochloa (Ds),”

[9] = system: Veronica; experiment: Post-emergence herbicidal action (Example B2); settings: post-emergence (2- to 3-leaf stage), 1000 g of active ingredient/ha, after 2 to 3 weeks, scale of nine ratings
Experimental: as §1, with “pots. When the test plants are at the 2- to 3-leaf stage,” for “pots. Immediately after sowing,”, “grown on” for “grown”, “of 2 to 3” for “of 4”, “Panicum, Euphorbia,” for “Panicum, Echinochloa (Ds),”

[10] = system: Amaranthus; experiment: Post-emergence herbicidal action (Example B2); set-up: key: 1=total damage; 9=no action; Ratings of from 1 to 4 (especially from 1 to 3) indicate good to very good herbicidal action; settings: post-emergence (2- to 3-leaf stage), 1000 g of active ingredient/ha, after 2 to 3 weeks, scale of nine ratings
Experimental: as §1, with “pots. When the test plants are at the 2- to 3-leaf stage,” for “pots. Immediately after sowing,”, “grown on” for “grown”, “of 2 to 3” for “of 4”, “Panicum, Euphorbia,” for “Panicum, Echinochloa (Ds),”

[11] = system: Chenopodium; experiment: Post-emergence herbicidal action (Example B2); set-up: key: 1=total damage; 9=no action; Ratings of from 1 to 4 (especially from 1 to 3) indicate good to very good herbicidal action; settings: post-emergence (2- to 3-leaf stage), 1000 g of active ingredient/ha, after 2 to 3 weeks, scale of nine ratings
Experimental: as §1, with “pots. When the test plants are at the 2- to 3-leaf stage,” for “pots. Immediately after sowing,”, “grown on” for “grown”, “of 2 to 3” for “of 4”, “Panicum, Euphorbia,” for “Panicum, Echinochloa (Ds),”

In the case of COc1cc(F)ccc1OCC#Cc1ccc(Cl)nc1 [1.004, 2-Chloro-5-[3-(4-fluoro-2-methoxy-phenoxy)-prop-1-ynyl]-pyridine], the “Echinochloa (Ds), herbicidal rating” value [1] is reported as 2, the “Panicum, herbicidal rating” value [2] is reported as 2 and the “Amaranthus, herbicidal rating” value [3] is reported as 1. The “Chenopodium, herbicidal rating” value [4] was 1, the “Stellaria, herbicidal rating” value [5] was 1 and the “Veronica, herbicidal rating” value [6] was 1. The “Euphorbia, herbicidal rating” value [7] was 2, the “Stellaria, herbicidal rating” value [8] was 2 and the “Veronica, herbicidal rating” value [9] was 2. For the same molecule, the “Amaranthus, herbicidal rating” value [10] was 1 and the “Chenopodium, herbicidal rating” value [11] was 1.
